How the values were obtained:
HL-60 [1] = assay: Percentage inhibition of human promyelocytic leukemia cells HL-60 differentiation induced by combined RAR and RXR agonists; Range is from 34-73; type: functional
HL-60 [2] = assay: Percentage of human promyelocytic leukemia cells HL-60 differentiation induced by Am80 RAR agonist; type: functional

Row | SMILES | Inhibition (HL-60 [1]) [%] | Inhibition (HL-60 [2]) [%]
1 | CC1(C)CCC(C)(C)c2cc(N(CC3CC3)c3ncc(C(=O)O)cn3)ccc21 | 73 | 
2 | CCCCCOc1cc2c(cc1N(C)c1ncc(C(=O)O)cn1)C(C)(C)CCC2(C)C |  | 44

Source: ChEMBL document CHEMBL1135522, “Novel retinoid X receptor antagonists: specific inhibition of retinoid synergism in RXR-RAR heterodimer actions” (2002)
